Literature values in Sander's compilation of Henry's law constants.

Columns and labels:
[1] = Henry solubility constant Hcp at 298.15 K (mol/(m3 Pa)); settings: cited value
[2] = Henry solubility constant Hcp at 293 K (mol/(m3 Pa)); settings: cited value
[3] = Henry solubility constant Hcp at 295 K (mol/(m3 Pa)); settings: reference: Lee and Zhou (1993); cited value
[4] = reference: Burkholder et al. (2015)
[5] = reference: Burkholder et al. (2019)
[6] = reference: Fogg and Sangster (2003)
[7] = reference: Nicholson et al. (1984)
[8] = reference: Sander et al. (2006)
[9] = reference: Sander et al. (2011)
[10] = reference: Barcelo and Hennion (1997)
[11] = reference: Mackay et al. (1992b)

For `ClC(Br)Br` [dibromochloromethane], the “Henry solubility constant Hcp” value [1, 4] is listed as 0.0086, the “Henry solubility constant Hcp” value [1, 5] is listed as 0.0086 and the “Henry solubility constant Hcp” value [1, 6] is listed as 0.0087. For the same molecule, the “Henry solubility constant Hcp” value ([1]; reference: Goldstein (1982)) was 0.012, the “Henry solubility constant Hcp” value [1, 7] was 0.012 and the “Henry solubility constant Hcp” value [1, 8] was 0.0086. The “Henry solubility constant Hcp” value [1, 9] was 0.0086 and the “Henry solubility constant Hcp at 293 K” value [2, 7] was 0.011.
For `CC(=O)CO` [1-hydroxypropanone], the “Henry solubility constant Hcp at 295 K” value [3] is listed as 77.
For `ClC(Cl)Br` [bromodichloromethane], the “Henry solubility constant Hcp” value [1, 4] is given as 0.004, the “Henry solubility constant Hcp” value [1, 5] is given as 0.004 and the “Henry solubility constant Hcp” value [1, 6] is given as 0.0048. For the same molecule, the “Henry solubility constant Hcp” value ([1]; reference: Goldstein (1982)) was 0.0046, the “Henry solubility constant Hcp” value [1, 7] was 0.0043 and the “Henry solubility constant Hcp” value [1, 8] was 0.004. For the same molecule, the “Henry solubility constant Hcp” value [1, 9] was 0.004 and the “Henry solubility constant Hcp at 293 K” value [2, 7] was 0.0047.
In the case of `BrBr` [bromine (molecular)], the “Henry solubility constant Hcp” value [1, 4] is given as 0.0072, the “Henry solubility constant Hcp” value [1, 5] is given as 0.0072 and the “Henry solubility constant Hcp” value ([1]; reference: Jenkins and King (1965)) is given as 0.0079. The “Henry solubility constant Hcp” value [1, 8] was 0.0072, the “Henry solubility constant Hcp” value [1, 9] was 0.0072 and the “Henry solubility constant Hcp at 293 K” value ([2]; reference: Giona et al. (1969)) was 0.0092.
For `C#C` [ethyne], the “Henry solubility constant Hcp” value [1, 4] is given as 0.00041, the “Henry solubility constant Hcp” value [1, 5] is given as 0.00041 and the “Henry solubility constant Hcp” value ([1]; reference: Deno and Berkheimer (1960)) is given as 0.00041. The “Henry solubility constant Hcp” value ([1]; reference: Fogg et al. (2002)) was 0.00041, the “Henry solubility constant Hcp” value [1, 8] was 0.00041 and the “Henry solubility constant Hcp” value [1, 9] was 0.00041. For the same molecule, the “Henry solubility constant Hcp” value ([1]; reference: Schoen (1923)) was 0.00041 and the “Henry solubility constant Hcp at 293 K” value ([2]; reference: Vtovec (1968)) was 0.00044.
For `CCOO` [ethyl hydroperoxide], the “Henry solubility constant Hcp” value ([1]; reference: Brockbank (2013)) is listed as 3.3, the “Henry solubility constant Hcp” value [1, 4] is listed as 3.3 and the “Henry solubility constant Hcp” value [1, 5] is listed as 3.3. For the same molecule, the “Henry solubility constant Hcp” value [1, 9] was 3.3.
In the case of `Cc1[nH]c(=O)n(C(C)(C)C)c(=O)c1Cl` [terbacil], the “Henry solubility constant Hcp” value [1, 10] is listed as 550.
In the case of `Cc1ccncc1` [4-methylpyridine], the “Henry solubility constant Hcp” value ([1]; reference: Brockbank (2013)) is listed as 1.6.
In the case of `CCCOCCC` [dipropyl ether], the “Henry solubility constant Hcp” value ([1]; reference: Brockbank (2013)) is given as 0.0029.
For `Clc1cc(Cl)c(Cl)c(Cl)c1` [1,2,3,5-tetrachlorobenzene], the “Henry solubility constant Hcp” value ([1]; reference: Meylan and Howard (1991)) is listed as 0.0063.
For `Nc1ccc([N+](=O)[O-])cc1` [4-nitrobenzenamine], the “Henry solubility constant Hcp” value ([1]; reference: Brockbank (2013)) is given as 8700.
For `Cc1cccc(C)c1N(Cn1cccn1)C(=O)CCl` [metazachlor], the “Henry solubility constant Hcp” value [1, 10] is listed as 13.
For `CC(C)c1ccccc1` [(2-propyl)-benzene], the “Henry solubility constant Hcp” value ([1]; reference: Brockbank (2013)) is given as 0.0009.
For `Clc1ccc(Cl)cc1` [1,4-dichlorobenzene], the “Henry solubility constant Hcp” value ([1]; reference: Brockbank (2013)) is given as 0.0038, the “Henry solubility constant Hcp” value [1, 6] is given as 0.0045 and the “Henry solubility constant Hcp” value ([1]; reference: Goldstein (1982)) is given as 0.0037.
In the case of `CCCC=O` [butanal], the “Henry solubility constant Hcp” value ([1]; reference: Brockbank (2013)) is listed as 0.091, the “Henry solubility constant Hcp” value [1, 4] is listed as 0.095 and the “Henry solubility constant Hcp” value [1, 5] is listed as 0.095. For the same molecule, the “Henry solubility constant Hcp” value [1, 8] was 0.095 and the “Henry solubility constant Hcp” value [1, 9] was 0.095.
In the case of `CCCCCCCCC` [nonane], the “Henry solubility constant Hcp” value ([1]; reference: Brockbank (2013)) is given as 2.3e-06.
For `CCc1cccc2ccccc12` [1-ethylnaphthalene], the “Henry solubility constant Hcp” value ([1]; reference: Brockbank (2013)) is listed as 0.02 and the “Henry solubility constant Hcp” value [1, 11] is listed as 0.026.
For `CC(=O)OC(C)(C)C` [1,1-dimethylethyl ethanoate], the “Henry solubility constant Hcp” value ([1]; reference: Brockbank (2013)) is listed as 0.012.
For `O=C1CCCC1` [cyclopentanone], the “Henry solubility constant Hcp” value ([1]; reference: Brockbank (2013)) is listed as 1.2.
In the case of `C(=C\c1ccccc1)/c1ccccc1` [(E)-stilbene], the “Henry solubility constant Hcp” value [1, 11] is given as 0.025.
For `CCCC(C)CCC` [4-methylheptane], the “Henry solubility constant Hcp” value ([1]; reference: Brockbank (2013)) is given as 2.7e-06.
For `CCOP(=S)(NC(C)C)Oc1ccccc1C(=O)OC(C)C` (centres undefined) [isofenphos], the “Henry solubility constant Hcp” value [1, 10] is listed as 1000 and the “Henry solubility constant Hcp” value ([1]; reference: MacBean (2012b)) is listed as 240.
For `[O-]O` [hydroperoxy radical], the “Henry solubility constant Hcp” value ([1]; reference: Régimbal and Mozurkewich (1997)) is listed as 57.
In the case of `CCOP(=O)(SC(C)CC)N1CCSC1=O` (centres undefined) [fosthiazate-1], the “Henry solubility constant Hcp” value ([1]; reference: MacBean (2012b)) is given as 75.
In the case of `Clc1ccc2ccccc2c1` [2-chloronaphthalene], the “Henry solubility constant Hcp” value ([1]; reference: Goldstein (1982)) is given as 0.016.
In the case of `CC(=O)c1ccccc1` [1-phenylethanone], the “Henry solubility constant Hcp” value ([1]; reference: Brockbank (2013)) is given as 1.1.
For `O=C(Nc1ccccc1)Nc1ccnc(Cl)c1` [forchlorfenuron], the “Henry solubility constant Hcp” value ([1]; reference: MacBean (2012b)) is given as 3.5e+06.
